# Laboratory results published in patent US20250228239A1, “MOLECULES HAVING PESTICIDAL UTILITY, AND INTERMEDIATES, COMPOSITIONS, AND PROCESSES, RELATED THERETO” (priority 2024, published 2025).
# Read-outs that look alike come from different tables or passages of the source.
# How the values were obtained:
# Type in all cases: in vivo
# [1] = test system: Beet Armyworm (Spodoptera exigua, LAPHEG); assay: Bioassays on Beet Armyworm (BAW), 128-well diet tray assay; details: Spodoptera exigua
# How it was run: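 Diet-overlay assay: 50 μg/cm^2 compound applied in 90:10 acetone-water to artificial diet, allowed to dry, then infested with 1–5 L2 larvae/well; 8 wells/compound; covered, vented; 25° C., 14:10 L:D, 5–7 d; % mortality per well, averaged.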
# [2] = test system: Cabbage Looper (Trichoplusia ni, TRIPNI); assay: Bioassays on Cabbage Looper (CL), 128-well diet tray assay; details: Trichoplusia ni
# How it was run: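 One to five second-instar larvae per well on artificial diet surface-treated with 50 μg/cm^2 test molecule (applied in 90:10 acetone-water, dried). Held 5–7 days at 25° C, 14:10 light-dark; percent mortality recorded per well and averaged over eight wells.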
# [3] = test system: Green Peach Aphid (Myzus persicae, MYZUPE); assay: Bioassays on Green Peach Aphid (GPA), foliar spray on cabbage seedlings; details: 72 h
# Description: Certain molecules disclosed in this document were tested against GPA using procedures described in the following example. In the reporting of the results, the “GPA & YFM Rating Table” was used (See Table Section).
# Cabbage seedlings grown in 3-inch pots, with 2-3 small (3-5 cm) true leaves, were used as test substrate. The seedlings were infested with 20-50 GPA (wingless adult and nymph stages) one day prior to chemical application. Four pots with individual seedlings were used for each treatment. Test molecules (2 mg) were dissolved in 2 mL of acetone/methanol (1:1) solvent, forming stock solutions of 1000 ppm test molecule. The stock solutions were diluted 5× with 0.025% Tween 20 in water to obtain the solution at 200 ppm test molecule. A hand-held aspirator-type sprayer was used for spraying a solution to both sides of […] leaves until runoff. Reference plants (solvent check) were sprayed with the diluent only containing 20% by volume of acetone/methanol (1:1) solvent. Treated plants were held in a holding room for three days at approximately 25° C. and ambient relative humidity (RH) prior to grading. Evaluation was conducted by counting the number of live aphids per plant under a microscope. Percent control was measured using Abbott's correction formula (W. S. Abbott, “A Method of Computing the Effectiveness of an Insecticide” J. Econ. Entomol. 18 (1925), pp. 265-267) as follows. Corrected % Control=100*(X−Y)/X where X=No. of live aphids on solvent check plants and Y=No. of live aphids on treated plants. The results are indicated in the table entitled “Table ABC: Biological Results” (See Table Section).
# [4] = test system: Yellow Fever Mosquito (Aedes aegypti, AEDSAE); details: for YFM rating: Table ABC / ABC-DP rating
# How it was run: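 Mortality after 3 days at room temperature is the read-out, scored well by well and converted to a rating. Test molecules came from 4000 ppm stocks in DMSO, further diluted in 90:10 water/acetone, and were exposed to roughly 1-day-old larvae suspended in liver-powder water.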
# [5] = Beet Armyworm, rating class, read-out: BAW
# [6] = Cabbage Looper, rating class, read-out: CL
# [7] = Green Peach Aphid, rating class, read-out: GPA
# [8] = Table ABC: Biological Results, species BAW, read-out: BAW
# [9] = Table ABC: Biological Results, species CL, read-out: CL
# [10] = Table ABC: Biological Results, species GPA, read-out: GPA
# [11] = Beet Armyworm, Table ABC / ABC-DP rating, read-out: BAW rating
# [12] = Cabbage Looper, Table ABC / ABC-DP rating, read-out: CL rating
compound,measurement,setting,value
"CCOC(C)C(=O)Nc1c(F)ccc(NC(=O)c2cc(NC(=O)[C@H]3[C@H](c4ccc(F)c(Cl)c4)C3(Cl)Cl)ccc2Cl)c1F (stereo partly drawn) [F1698, 2-Chloro-5-((1R,3R)-2,2-dichloro-3-(3-chloro-4-fluorophenyl)cyclopropane-1-carboxamido)-N-(3-(2-ethoxypropanamido)-2,4-difluorophenyl)benzamide]",pest or weed control at 50 µg/cm2,[1]; [5],50 to 100%
same,pest or weed control at 50 µg/cm2,[2]; [6],50 to 100%
same,pest or weed control at 200 µg/mL,[3]; [7],0 to 80%
"COCC(=O)Nc1c(F)ccc(NC(=O)c2cc(NC(=O)[C@H]3[C@H](c4ccc(F)c(C(F)(F)F)c4)C3(Cl)Cl)ccc2Cl)c1F [F1724, 2-Chloro-5-((1R,3R)-2,2-dichloro-3-(4-fluoro-3-(trifluoromethyl)phenyl)cyclopropane-1-carboxamido)-N-(2,4-difluoro-3-(2-methoxyacetamido)phenyl)benzamide]",pest or weed control at 50 µg/cm2,[1]; [5],50 to 100%
same,pest or weed control at 50 µg/cm2,[2]; [6],50 to 100%
same,pest or weed control at 200 µg/mL,[3]; [7],80 to 100%
"CC(=O)Nc1ccc(F)c(NC(=O)c2cc(NC(=O)[C@H]3[C@H](c4cc(Cl)cc(Cl)c4)C3(Cl)Cl)cc(F)c2Cl)c1F [F1505, N-(3-acetamido-2,6-difluorophenyl)-2-chloro-5-((1R,3R)-2,2-dichloro-3-(3,5-dichlorophenyl)cyclopropane-1-carboxamido)-3-fluorobenzamide]",pest or weed control at 50 µg/cm2,[1]; [5],50 to 100%
same,pest or weed control at 50 µg/cm2,[2]; [6],50 to 100%
same,pest or weed control at 200 µg/mL,[3]; [7],0 to 80%
"CC(=O)Nc1c(F)ccc(NC(=O)c2cc(NC(=O)[C@H]3[C@H](c4ccc(Cl)c(C(F)(F)F)c4)C3(Cl)Cl)ccc2Cl)c1F [F1658, N-(3-Acetamido-2,4-difluorophenyl)-2-chloro-5-((1R,3R)-2,2-dichloro-3-(4-chloro-3-(trifluoromethyl)phenyl)cyclopropane-1-carboxamido)benzamide]",pest or weed control at 50 µg/cm2,[1]; [5],50 to 100%
same,pest or weed control at 50 µg/cm2,[2]; [6],50 to 100%
same,pest or weed control at 200 µg/mL,[3]; [7],0 to 80%
"N#CCC(=O)Nc1c(F)ccc(NC(=O)c2cc(NC(=O)[C@H]3[C@H](c4ccc(F)c(Cl)c4)C3(Cl)Cl)ccc2Cl)c1F [F1700, 2-Chloro-N-(3-(2-cyanoacetamido)-2,4-difluorophenyl)-5-((1R,3R)-2,2-dichloro-3-(3-chloro-4-fluorophenyl)cyclopropane-1-carboxamido)benzamide]",pest or weed control at 50 µg/cm2,[1]; [5],50 to 100%
same,pest or weed control at 50 µg/cm2,[2]; [6],50 to 100%
same,pest or weed control at 200 µg/mL,[3]; [7],0 to 80%
"O=C(Nc1ccc(F)c(NC(=O)C(F)F)c1F)c1cc(NC(=O)[C@H]2[C@H](c3ccc(F)c(Cl)c3)C2(Cl)Cl)cc(F)c1Cl [F1256, 2-Chloro-5-((1R,3R)-2,2-dichloro-3-(3-chloro-4-fluorophenyl)cyclopropane-1-carboxamido)-N-(3-(2,2-difluoroacetamido)-2,4-difluorophenyl)-3-fluorobenzamide]",pest or weed control at 50 µg/cm2,[1]; [8],50 to 100%
same,pest or weed control at 50 µg/cm2,[2]; [9],50 to 100%
same,pest or weed control at 200 µg/mL,[3]; [10],80 to 100%
"O=C(Nc1cc(NC(=O)C(Cl)Cl)c(F)cc1F)c1cc(NC(=O)[C@H]2[C@H](c3ccc(Cl)c(Cl)c3)C2(Cl)Cl)ccc1Cl [F1244, 2-Chloro-5-((1R,3R)-2,2-dichloro-3-(3,4-dichlorophenyl)cyclopropane-1-carboxamido)-N-(5-(2,2-dichloroacetamido)-2,4-difluorophenyl)benzamide]",pest or weed control at 50 µg/cm2,[1]; [8],50 to 100%
same,pest or weed control at 50 µg/cm2,[2]; [9],50 to 100%
same,pest or weed control at 200 µg/mL,[3]; [10],0 to 80%
"Nc1c(F)ccc(NC(=O)c2cc(NC(=O)[C@H]3[C@H](c4ccc(F)c(Cl)c4)C3(Cl)Cl)cc(F)c2Cl)c1F [F1255, N-(3-amino-2,4-difluorophenyl)-2-chloro-5-((1R,3R)-2,2-dichloro-3-(3-chloro-4-fluorophenyl)cyclopropane-1-carboxamido)-3-fluorobenzamide]",pest or weed control at 50 µg/cm2,[1]; [8],50 to 100%
same,pest or weed control at 50 µg/cm2,[2]; [9],50 to 100%
same,pest or weed control at 200 µg/mL,[3]; [10],80 to 100%
"CC(=O)Nc1c(F)ccc(NC(=O)c2cc(NC(=O)[C@H]3[C@H](c4ccc(F)c(C(F)(F)F)c4)C3(Cl)Cl)ccc2F)c1F [F1531, N-(3-acetamido-2,4-difluorophenyl)-5-((1R,3R)-2,2-dichloro-3-(4-fluoro-3-(trifluoromethyl)phenyl)cyclopropane-1-carboxamido)-2-fluorobenzamide]",pest or weed control at 50 µg/cm2,[1]; [5],50 to 100%
same,pest or weed control at 50 µg/cm2,[2]; [6],50 to 100%
same,pest or weed control at 200 µg/mL,[3]; [7],0 to 80%
"O=C(NNC(=O)c1cc(NC(=O)[C@H]2[C@H](c3cc(Cl)cc(Cl)c3)C2(Cl)Cl)ccc1Cl)Nc1ccccc1 (relative stereo) [F2537, trans-2-(2-Chloro-5-(2,2-dichloro-3-(3,5-dichlorophenyl)cyclopropane-1-carboxamido)benzoyl)-N-phenylhydrazine-1-carboxamide]",pest or weed control at 50 µg/cm2,[1]; [11],50 to 100%
same,pest or weed control at 50 µg/cm2,[2]; [12],50 to 100%
same,pest or weed control at 200 µg/mL,"[3]; Green Peach Aphid, Table ABC / ABC-DP rating, read-out: GPA rating",80 to 100%
"O=C(Nc1ccc(F)c(NC(=O)C(F)F)c1F)c1cc(NC(=O)[C@H]2[C@H](c3ccc(F)c(C(F)(F)F)c3)C2(Cl)Cl)ccc1F [F1530, 5-((1R,3R)-2,2-Dichloro-3-(4-fluoro-3-(trifluoromethyl)phenyl)cyclopropane-1-carboxamido)-N-(3-(2,2-difluoroacetamido)-2,4-difluorophenyl)-2-fluorobenzamide]",pest or weed control at 50 µg/cm2,[1]; [5],50 to 100%
same,pest or weed control at 50 µg/cm2,[2]; [6],50 to 100%
same,pest or weed control at 200 µg/mL,[3]; [7],0 to 80%
"Cc1cc(F)ccc1NNC(=O)c1cc(NC(=O)[C@H]2[C@H](c3cc(Cl)cc(Cl)c3)C2(Cl)Cl)ccc1Cl (relative stereo) [F2562, trans-2,2-Dichloro-N-(4-chloro-3-(2-(4-fluoro-2-methylphenyl)hydrazine-1-carbonyl)phenyl)-3-(3,5-dichlorophenyl)cyclopropane-1-carboxamide]",mortality at 50 µg/cm2,"[1]; 168 h, second instar larvae, 50 μg/cm^2 of test molecule on artificial diet, 25° C., five to seven days, average of eight wells, read-out: BAW % Control (or Mortality) rating",50 to 100%
same,pest or weed control at 50 µg/cm2,[1]; [11],50 to 100%
same,mortality at 50 µg/cm2,"[2]; 168 h, second instar larvae, 50 μg/cm^2 of test molecule on artificial diet, 25° C., five to seven days, average of eight wells, read-out: CL % Control (or Mortality) rating",50 to 100%
same,pest or weed control at 50 µg/cm2,[2]; [12],50 to 100%
same,YFM rating,[4]; Yellow Fever Mosquito,A (80–100)
same,YFM % Control (or Mortality) rating,"[4]; about 1 day-old larvae, 4000 ppm master solution diluted with 90:10 water/acetone, 15 μL per well plus 220 μL larval mixture, 3 days, mortality",A (80–100)
"O=C(NNc1ccc(F)cc1F)c1cc(NC(=O)[C@H]2[C@H](c3cc(Cl)cc(Cl)c3)C2(Cl)Cl)ccc1Cl (relative stereo) [F2559, trans-2,2-Dichloro-N-(4-chloro-3-(2-(2,4-difluorophenyl)hydrazine-1-carbonyl)phenyl)-3-(3,5-dichlorophenyl)cyclopropane-1-carboxamide]",pest or weed control at 50 µg/cm2,[1]; [11],50 to 100%
same,pest or weed control at 50 µg/cm2,[2]; [12],50 to 100%
same,YFM rating,[4]; Yellow Fever Mosquito,B (More than 0 – Less than 80)
"C=Cc1cc(F)cc(F)c1NC(=O)c1cc(NC(=O)[C@H]2[C@H](c3cc(Cl)cc(Cl)c3)C2(Cl)Cl)ccc1Cl (relative stereo) [F1316, trans-2-Chloro-5-(2,2-dichloro-3-(3,5-dichlorophenyl)cyclopropane-1-carboxamido)-N-(2,4-difluoro-6-vinylphenyl)benzamide]",pest or weed control at 50 µg/cm2,[1]; [8],50 to 100%
same,pest or weed control at 50 µg/cm2,[2]; [9],50 to 100%
same,YFM,"[4]; Table ABC: Biological Results, species YFM",A (80–100)
"O=C(Nc1ccc(F)c(NC(=O)C(F)F)c1F)c1cc(NC(=O)[C@H]2[C@H](c3ccc(Cl)c(Cl)c3)C2(Cl)Cl)cc(F)c1F [F1443, 5-((1R,3R)-2,2-Dichloro-3-(3,4-dichlorophenyl)cyclopropane-1-carboxamido)-N-(3-(2,2-difluoroacetamido)-2,4-difluorophenyl)-2,3-difluorobenzamide]",pest or weed control at 50 µg/cm2,[1]; [5],50 to 100%
same,pest or weed control at 50 µg/cm2,[2]; [6],50 to 100%
same,YFM,"[4]; Yellow Fever Mosquito, rating class",A (80–100)
